Results: patent publication US20030203963A1, “Antimicrobial agent” (priority 2001, published 2003)

What was measured:
Listeria innocua = assay: Preliminary growth inhibition test; assay type: cell-based; conditions: 37° C., 20 hours
Source text: (§1) Antimicrobial activity was investigated using Salmonella Typhimurium and Listeria innocua.

[1] = system: Salmonella Typhimurium DSMZ 554; assay: Preliminary growth inhibition test; assay type: cell-based; conditions: 37° C., 24 hour
Source text: as §1

Salm. Typhimurium S29 = assay: Bioscreen growth inhibition test; assay type: cell-based, Salmonella Typhimurium; conditions: BS010411, 24 h/30° C.
Description: For broth cultures and Bioscreen testing most bacteria were grown in Brain Heart Infusion (BHI, Oxoid, pH 7.4). Lactobacillus sake A10 was grown in de Man, Rogosa, Sharpe medium ([…], Oxoid). Yeasts were grown in Sabouraud Liquid medium (SLM, Oxoid). Most bacteria were cultured at 30° C. Lactic acid bacteria were grown on solid medium in enriched CO2 atmosphere. Clostridium species were grown in Reinforced Clostridial Medium (RCM) at 37° C. anaerobically. Brochothrix thermosphacta fungi and yeasts were grown at 25° C. Fungi were cultured on Malt Extract Agar (MEA, Oxoid).
An automated Microbiology Reader Bioscreen C was used to measure growth curves of the strains in the presence and absence of APP. The Bioscreen C measures the development of turbidity (i.e. growth) kinetically by vertical photometry in 200 wells of a honeycomb microtitre plate, simultaneously. The system consists of a Bioscreen C analyser, which is an incubator and measurement unit, integrated with a PC, software (BioLink v 5.30), printer and a ‘Honeycomb 2’ cuvette multiwell plate. Growth curve data can be analysed within the BioLink software or exported to programs such as Excel.
Broth culture media were dispensed in 270 μl volumes into the wells as directed. Serial dilutions of a filter-sterilised APP stock solution were then dispensed into the same wells, as appropriate. The wells were inoculated with 30 μl of an appropriately diluted overnight broth culture or spore suspension, to give a final inoculum level of […]. The tests were incubated in the Bioscreen C for either 24 h at 30° C., or 72 h at 25° C. (depending on the micro-organism under investigation) with readings taken every 20 minutes after the trays were shaken. After the incubation period was complete the data were exported to Excel for analysis.

L. monocytogenes S23 = assay: In vitro cidal experiment; assay type: cell-based, Listeria monocytogenes; conditions: ambient temperature
Description: 100 μl of SDW (sterile deionised water) or APP sample E002012 was added to 890 μl 10 mM HEPES buffer (pH 7). […] After this time the bacteria were enumerated by viable count. The concentration of the APP sample was 24.7 μg/ml.

B. cereus 204 = assay: Chicken soup trial at 20° C.; assay type: cell-based, Bacillus cereus; conditions: chicken soup at 20° C., TCSM010430, APP20010213
Source text: A local supermarket brand of cream of chicken soup was used as a model food system. 600 g packs were purchased from the local supermarket. This was a ‘fresh home-made type’ of soup that was stored in the chill cabinet, with a short shelf life. It was chosen because it is a rich, nutritious food system containing a range of food components including meat, dairy and vegetable.
Ingredients were labelled as: chicken stock (water, duck fat, chicken, salt, flavourings, yeast extracts, pork gelatine, glucose syrup, vegetable concentrate, milk protein, sugar, malto-dextrin, vegetable oil, citric acid, lactose, chicken fat), ilk, chicken (9%), cream (8%), onion, potato, vegetable oil, modified maize starch, wheat flour, lemon juice, salt, white pepper. pH 5.912. Protein: 3.3%; carbohydrate: 4.7%; fat: 7.2%; fibre: 0.2%; sodium: 0.1%
For the test the soup was mixed 2:1 in water (to facilitate sampling and mixing) and sterilised by autoclaving at 121° C. for 15 minutes. For each experiment the pH of the soup was recorded; this was between pH 5.79-5.88.
For TCS010430/20 (incubated at 20° C.) samples were prepared in 18.8 g quantities, to which 1 g of a suitable filter-sterilised APP stock solution was added and an appropriately diluted 0.2 ml inoculum. Great care was again taken to ensure homogeneous distribution of the APP and micro-organisms. This test was sampled by viable count test on a daily basis.

L. monocytogenes = assay: Test in milk; assay type: cell-based, Listeria monocytogenes; conditions: 2000 ppm, TMGB010605
Description: 8.9 ml samples of UHT milk containing 0.5% glucose and the indicator bromocresol purple (0.01%) were prepared and sterilised by autoclaving. The pH before APP addition was pH 6.65. Appropriate stock solutions of APP batch number APP20010215 (at 138 mg/ml) were prepared and filter sterilised. 1 ml of each was added to the milk to prepare tests containing 0, 1000 and 2000 ppm APP. Tests were then inoculated with 100 μl of diluted overnight broth cultures or spore suspensions to give a final inoculum level of ca. 10^3 cfu/ml. These and uninoculated tests were incubated at 20 and 8° C. and examined daily for visible changes compared to uninoculated control.

Salm Typhimurium S29 = assay: Test in cooked minced beef slurry; assay type: cell-based, Salmonella Typhimurium
Description: 1 kg of minced beef, purchased from the local butcher, was mixed with 1 litre of BHI. 200 g portion of this meat slurry was autoclaved. When the meat had cooled, the pH was recorded (pH 6.24), and each pot was inoculated with 2.0 ml of 10^5 spores or cells and the meat re-mixed thoroughly. Each inoculated 200 g pot was distributed as 3×50 g portions. To each pot 1 ml of SDW, 5% or 10% APP (Batch No. APP20010215) was added, and the meat was again mixed thoroughly. An initial viable count was performed, the meat was incubated at 8° C. and sampled twice weekly. The pH of the cooked minced beef slurry was 6.24.

Stability in water = assay type: physicochemical; conditions: water at 24° C.
Description: Tests indicate that APP is stable in water at 24° C. for 2 weeks, but completely disappears after 2 months. […] At pH 11-12.5 APP has a half-life of 5 h. Since most food is acidic or neutral, the stability may therefore be improved by using APP in combination with an antioxidant such as those listed hereinbefore.

O=C1CC(CO)OC=C1O (stereo not drawn) [APP, Ascopyrone P]
Inhibition of bacterial growth (Listeria innocua; 500 μg/ml APP, 10e3 cfu/ml): slight inhibition
Inhibition of bacterial growth (Listeria innocua; 500 μg/ml APP, 10e5 cfu/ml): almost no inhibition
Inhibition of bacterial growth (Listeria innocua; 1000 μg/ml APP, 10e3 cfu/ml): intermediate inhibition
Inhibition of bacterial growth (Listeria innocua; 1000 μg/ml APP, 10e5 cfu/ml): slight inhibition
Inhibition of bacterial growth (Listeria innocua; 2000 μg/ml APP, 10e3 cfu/ml): almost complete inhibition
Inhibition of bacterial growth (Listeria innocua; 2000 μg/ml APP, 10e5 cfu/ml): intermediate inhibition
Inhibitory effect (Listeria innocua; 10e3 or 10e5 cfu/ml): satisfactory inhibitory effect
Inhibition of bacterial growth ([1]; 500 μg/ml APP): Intermediate inhibition
Inhibition of bacterial growth ([1]; 1000 μg/ml APP): strong inhibition
Inhibition of bacterial growth ([1]; 2000 μg/ml APP, 10e3 and 10e5 cfu/ml): complete inhibition
Inhibition of bacterial growth ([1]; 4000 μg/ml APP, 10e3 and 10e5 cfu/ml): complete inhibition
Inhibitory effect ([1]; 10e3 or 10e5 cfu/ml): satisfactory inhibitory effect
APP level causing significant inhibition (Salm. Typhimurium S29; APP 20010213): 2000 ppm
APP level causing total inhibition (Salm. Typhimurium S29; APP 20010213): 4000 ppm
APP level causing significant inhibition (Salm. Typhimurium S29; APP 20010215): 2000 ppm
APP level causing total inhibition (Salm. Typhimurium S29; APP 20010215): >4000 ppm
Viable count after 2 h incubation (L. monocytogenes S23; 24.7 μg/ml APP E002012, 10 mM HEPES buffer (pH 7)): 1.3 × 10^7
Listeria counts after 2 h incubation (L. monocytogenes S23; 24.7 μg/ml APP, buffer): remained steady
Effect on growth (B. cereus 204; 500 ppm): No significant effect with 500 ppm
Effect on growth (B. cereus 204; 1000 ppm): Extension of lag with 1000 ppm
Total inhibition for (B. cereus 204; 2000 ppm): Total inhibition by 2000 ppm for >42 days.
Control of growth (L. monocytogenes; milk at 8° C.): No control observed
Control of growth (L. monocytogenes; milk at 20° C.): No control observed
Total inhibition for (Salm Typhimurium S29; 2000 ppm, minced beef slurry at 8° C., pH 6.24, TCM010619): Total inhibition by 2000 ppm for >44 d
Total inhibition (effect on growth of target organism by 2000 ppm APP) (Salm Typhimurium S29; Cooked minced beef slurry at 8° C. pH 6.24): S. Typhimurium
Completely disappears after (Stability in water): 2 months
Stable in water for (Stability in water): 2 weeks
